Test [1] deals with GDP-bound KRAS protein (aa 1-169), G12D and C118A; SOS-mediated nucleotide exchange (Homo sapiens (Human), UniProt P01116, C118A/G12D). The test can be described thus: KRAS G12D Coupled Nucleotide Exchange Assay. The test is classed as biochemical. To be noted: 2 h compound pre-incubation, GTP, cRAF AlphaScreen. Here is the method: Purified GDP-bound KRAS protein (aa 1-169), containing both G12D and C118A amino acid substitutions and an N-terminal His-tag, was pre-incubated in assay buffer (25 mM HEPES pH 7.4, 10 mM MgCl2, and 0.01% Triton X-100) with a compound dose-response titration for 2 h. Following compound pre-incubation, purified SOS protein (aa 564-1049) and GTP (Roche 10106399001) were added to the assay wells and incubated for an additional 30 min. […] The assay plates were then read on a PerkinElmer En Vision Multilabel Reader, using AlphaScreen® technology, and data were analyzed using a 4-parameter logistic model to calculate IC50 values.
(Bead proximity is the source of the signal in Alpha formats.)

Test [2] concerns the target His-tagged KRAS G12D protein (Homo sapiens (Human), UniProt P01116, G12D). Description: KRAS G12D TR-FRET Assay. The class given is binding. To be noted: biotinylated KRPep-2d, 10 μM GDP. How it is done:
Compounds of interest were prepared in a dose-response titration in DMSO, and 80 nL were added via Labcyte Echo to each well of a 384-well plate (Perkin Elmer 6008280). The His-tagged KRAS G12D protein (Amgen) was diluted to 20 nM in Assay Buffer (20 mM HEPES, pH 7.4, 10 mM MgCl2, 50 mM NaCl, 0.1% BSA, 0.01% Tween-20, 10 μM GDP) and 2 μL was added to the appropriate wells of the 384-well plate. The plate was incubated for 30 minutes at rt. Biotinylated KRPep-2d substrate (Amgen) was diluted to […] in Assay Buffer and 2 AL was added to all wells and incubated for 1 hour at room temperature. Detection Reagent (0.4 nM LANCE Eu-W1024 Anti-6×His (Perkin Elmer AD0401), 5 nM streptavidin-d2 (Cisbio 610SADLA)) was prepared in Assay Buffer, then 4 AL was added to the plate and incubated for 1 h at rt. Plates were read using PerkinElmer En Vision (ex: 320 nm, em1: 665 nm, em2: 615 nm) and em1/em2 data was used to generate curve fits using a 4-parameter logistic model to calculate IC50 values.
Background: TR-FRET usually uses a lanthanide donor and a delayed reading to cut background.

Test [3] has as its system Phosphorylation of ERK1/2 in AsPC-1 cells. Description: Phospho-ERK1/2 MSD Assay. The class given is cell-based. How it is done:
AsPC-1 (ATCC® CRL-1682TM) cells were cultured in RPMI 1640 Medium (ThermoFisher Scientific 11875093) containing 10% fetal bovine serum (ThermoFisher Scientific 16000044) and 1× penicillin-streptomycin-glutamine (ThermoFisher Scientific 10378016). Sixteen hours prior to compound treatment, AsPC-1 cells were seeded in 96-well cell culture plates at a density of 25,000 cells/well and incubated at 37° C., 5% CO2. A compound dose-response titration was diluted in growth media, added to appropriate wells of a cell culture plate, and then incubated at 37° C., 5% CO2 for 2 hours. Following compound treatment, cells were washed with ice-cold Dulbecco's phosphate-buffered saline, no Ca^2+ or Mg^2+ (ThermoFisher Scientific 14190144), and then lysed in RIPA buffer (50 mM Tris-HCl pH 7.5, 1% Igepal, 0.5% sodium deoxycholate, 150 mM NaCl, and 0.5% sodium dodecyl sulfate) containing protease inhibitors (Roche 4693132001) and phosphatase inhibitors (Roche 4906837001). Phosphorylation of ERK1/2 in compound-treated lysates was assayed using Phospho-ERK1/2 Whole Cell Lysate kits (Meso Scale Discovery K151DWD) according to the manufacturer's protocol. Assay plates were read on a Meso Scale Discovery Sector Imager 6000, and data were analyzed using a 4-parameter logistic model to calculate IC50 values.

[4] abbreviates: Homo sapiens, ASPC1, 2 h, read-out: 2 h p-ERK (AsPC-1 cells), IC50 (μM), AsPC-1 cells, 2 h compound treatment.
[5] abbreviates: read-out: 2 h p-ERK (AsPC-1 cells), IC50, AsPC-1 cells, 2 h compound treatment.

Like-named read-outs stand apart in the source and are kept apart here.

A word on the IC50: it is the concentration at which inhibition is half-maximal.

GDP-bound KRAS protein (aa 1-169), G12D and C118A; SOS-mediated nucleotide exchange, sequence (P01116 other isoform, or with tags, fused parts or gaps G12D/C118A): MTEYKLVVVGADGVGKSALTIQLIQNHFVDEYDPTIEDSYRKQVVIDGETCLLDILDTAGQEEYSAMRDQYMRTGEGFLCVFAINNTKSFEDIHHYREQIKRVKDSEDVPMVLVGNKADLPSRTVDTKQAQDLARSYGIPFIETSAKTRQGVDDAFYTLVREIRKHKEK
His-tagged KRAS G12D protein, sequence (P01116-2 other isoform, or with tags, fused parts or gaps G12D): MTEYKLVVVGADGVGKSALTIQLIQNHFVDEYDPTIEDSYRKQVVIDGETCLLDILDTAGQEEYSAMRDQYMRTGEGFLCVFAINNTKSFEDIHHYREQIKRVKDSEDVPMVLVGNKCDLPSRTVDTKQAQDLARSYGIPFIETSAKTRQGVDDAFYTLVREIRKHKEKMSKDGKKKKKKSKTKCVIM

With `N#Cc1c(N)sc2c(F)ccc(-c3c(Cl)cc4c(N5CCCOCCC5)nc(OC[C@@]56CCCN5C[C@H](F)C6)nc4c3F)c12` (single isomer, unassigned) [Example 18], the results for the IC50 in test [1], in test [2] and in test [3] (setting [4]) were 2 nM, 2 nM and 0.013 µM, respectively.
As to `CC1(O)COCCN(c2nc(OC[C@@]34CCCN3C[C@H](F)C4)nc3c(F)c(-c4ccc(F)c5sc(N)c(C#N)c45)c(Cl)cc23)C1` (single isomer, unassigned) [Example 22], the IC50 in test [1] came to 2 nM; in test [2] it was 2 nM; in test [3] (setting [5]), 0.013 µM.
As to `CC1(O)COCCN(c2nc(OC[C@@]34CCCN3C[C@H](F)C4)nc3c(F)c(-c4ccc(F)c5sc(N)c(C#N)c45)c(Cl)cc23)C1` (single isomer, unassigned) [Example 24], the IC50 was found to be 2 nM in test [1], 3 nM in test [2] and 0.185 µM in test [3] (setting [5]).
In the case of `CC1(O)CCCCN(c2nc(OC[C@@]34CCCN3C[C@H](F)C4)nc3c(F)c(-c4ccc(F)c5sc(N)c(C#N)c45)c(Cl)cc23)C1` (single isomer, unassigned) [Example 28], the concentration for half-maximal inhibition (IC50) is 5 nM in test [1], 3 nM in test [2] and 0.097 µM in test [3] (setting [4]).
As to `CCC1(O)COCCN(c2nc(OC[C@@]34CCCN3C[C@H](F)C4)nc3c(F)c(-c4ccc(F)c5sc(N)c(C#N)c45)c(Cl)cc23)C1` (single isomer, unassigned) [Example 44], the 50% inhibitory concentration (IC50) in test [1] was determined as 3 nM; in test [2] it was 2 nM; in test [3] (setting [5]) it was 0.032 µM.
As for `CCC1(O)COCCN(c2nc(OC[C@@]34CCCN3C[C@H](F)C4)nc3c(F)c(-c4ccc(F)c5sc(N)c(C#N)c45)c(Cl)cc23)C1` (single isomer, unassigned) [Example 45], the values for the concentration for half-maximal inhibition (IC50) in test [1], in test [2] and in test [3] (setting [5]) were 5 nM, 6 nM and 0.185 µM, respectively.
`N#Cc1c(N)sc2c(F)ccc(-c3c(Cl)cc4c(N5CCOCC(O)(C(F)F)C5)nc(OC[C@@]56CCCN5C[C@H](F)C6)nc4c3F)c12` (single isomer, unassigned) [Example 46]: the concentration for half-maximal inhibition (IC50) in test [1] turned out to be 3 nM; in test [2], 6 nM; in test [3] (setting [4]) it was 0.148 µM.
The matching figures for `N#Cc1c(N)sc2c(F)ccc(-c3c(Cl)cc4c(N5CCOCC(F)C5)nc(OC[C@@]56CCCN5C[C@H](F)C6)nc4c3F)c12` (single isomer, unassigned) [Example 58]: 1 nM, 3 nM and 0.078 µM.
As to `N#Cc1c(N)sc2c(F)ccc(-c3c(Cl)cc4c(N5CCOCC(F)C5)nc(OC[C@@]56CCCN5C[C@H](F)C6)nc4c3F)c12` (single isomer, unassigned) [Example 59], the half-inhibitory concentration (IC50) came to 2 nM in test [1], 5 nM in test [2] and 0.062 µM in test [3] (setting [5]).
In the case of `CC1(O)COCCN(c2nc(OCC34CCCN3CC(F)(F)C4)nc3c(F)c(-c4ccc(F)c5sc(N)c(C#N)c45)c(Cl)cc23)C1` (single isomer, unassigned) [Example 60, 2-Amino-4-(6-chloro-2-((2,2-difluorotetrahydro-1H-pyrrolizin-7a(5H)-yl)methoxy)-8-fluoro-4-(6-hydroxy-6-methyl-1,4-oxazepan-4-yl)quinazolin-7-yl)-7-fluorobenzo[b] thiophene-3-carbonitrile], the concentration for half-maximal inhibition (IC50) was 7 nM in test [1], 8 nM in test [2] and 0.292 µM in test [3] (setting [4]).
Consider `N#Cc1c(N)sc2c(F)ccc(-c3c(Cl)cc4c(N5CCCC[C@H](O)C5)nc(OC[C@@]56CCCN5C[C@H](F)C6)nc4c3F)c12` [Example 5, 2-Amino-4-(6-chloro-8-fluoro-2-(((2R,7a.S)-2-fluorotetrahydro-1H-pyrrolizin-7a(5H)-yl)methoxy)-4-((S)-3-hydroxyazepan-1-yl)quinazolin-7-yl)-7-fluorobenzo[b] thiophene-3-carbonitrile], for which the IC50 in test [1] stood at 4 nM; in test [2] it was 3 nM; in test [3] (setting [4]), 0.097 µM.
The matching figures for `CC1(C(N)=O)CCCN(c2nc(OC[C@@]34CCCN3C[C@H](F)C4)nc3c(F)c(-c4ccc(F)c5sc(N)c(C#N)c45)c(Cl)cc23)C1` (stereo partly drawn) [Example 11, 1-(7-(2-Amino-3-cyano-7-fluorobenzo[b]thiophen-4-yl)-6-chloro-8-fluoro-2-(((2R,7aS)-2-fluorotetrahydro-1H-pyrrolizin1 7a(5H)-yl)methoxy)quinazolin-4-yl)-3-methylpiperidine-3-carboxamide]: 7 nM, 7 nM and 0.677 µM.
With `N#Cc1c(N)sc2c(F)ccc(-c3c(Cl)cc4c(N5CCC[C@@H](S(N)(=O)=O)C5)nc(OC[C@@]56CCCN5C[C@H](F)C6)nc4c3F)c12` [Example 12, (3R)-1-(7-(2-Amino-3-cyano-7-fluorobenzo[b]thiophen-4-yl)-6-chloro-8-fluoro-2-(((2R,7aS)-2-fluorotetrahydro-1H-pyrrolizin-7a(5H)-yl)methoxy)quinazolin-4-yl)piperidine-3-sulfonamide], the IC50 in test [1] was 6 nM; in test [2] it was 6 nM; in test [3] (setting [4]), 1.81 µM.
With `N#Cc1c(N)sc2c(F)ccc(-c3c(Cl)cc4c(N5CCCC6(CC(=O)N6)C5)nc(OC[C@@]56CCCN5C[C@H](F)C6)nc4c3F)c12` (stereo partly drawn) [Example 13, 2-Amino-4-(6-chloro-8-fluoro-2-(((2R,7aS)-2-fluorotetrahydro-1H-pyrrolizin1 7a(5H)-yl)methoxy)-4-(2-oxo-1,6-diazaspiro[3.5]nonan-6-yl)quinazolin-7-yl)-7-fluorobenzo[b] thiophene-3-carbonitrile], the half-maximal inhibitory concentration (IC50) was found to be 5 nM in test [1], 5 nM in test [2] and 2.21 µM in test [3] (setting [4]).
With `CS(=O)(=O)N1CC2(CCCN(c3nc(OC[C@@]45CCCN4C[C@H](F)C5)nc4c(F)c(-c5ccc(F)c6sc(N)c(C#N)c56)c(Cl)cc34)C2)C1` [Example 14], the 50% inhibitory concentration (IC50) in test [1] amounted to 4 nM; in test [2], 4 nM; in test [3] (setting [4]), 0.729 µM.
As to `N#Cc1c(N)sc2c(F)ccc(-c3c(Cl)cc4c(N5CCCCC(S(N)(=O)=O)C5)nc(OC[C@@]56CCCN5C[C@H](F)C6)nc4c3F)c12` (stereo partly drawn) [Example 15, 1-(7-(2-Amino-3-cyano-7-fluorobenzo[b]thiophen-4-yl)-6-chloro-8-fluoro-2-(((2R,7aS)-2-fluorotetrahydro-1H-pyrrolizin-7a(5H)-yl)methoxy)quinazolin-4-yl)azepane-3-sulfonamide], the 50% inhibitory concentration (IC50) in test [1] turned out to be 4 nM; in test [2] it was 3 nM; in test [3] (setting [4]), 0.296 µM.
The like results for `N#Cc1c(N)sc2c(F)ccc(-c3c(Cl)cc4c(N5CCCC(=O)CC5)nc(OC[C@@]56CCCN5C[C@H](F)C6)nc4c3F)c12` [Example 16, 2-Amino-4-(6-chloro-8-fluoro-2-(((2R,7a.S)-2-fluorotetrahydro-1H-pyrrolizin-7a(5H)-yl)methoxy)-4-(4-oxoazepan-1-yl)quinazolin-7-yl)-7-fluorobenzo[b] thiophene-3-carbonitrile] were, in that order, 3 nM, 2 nM and 0.076 µM.
`N#Cc1c(N)sc2c(F)ccc(-c3c(Cl)cc4c(N5CCC=CC(O)C5)nc(OC[C@@]56CCCN5C[C@H](F)C6)nc4c3F)c12` (stereo partly drawn) [Example 29, 2-Amino-4-(6-chloro-8-fluoro-2-(((2R,7aS)-2-fluorotetrahydro-1H-pyrrolizin-7a(5H)-yl)methoxy)-4-(3-hydroxy-2,3,6,7-tetrahydro-1H-azepin-1-yl)quinazolin-7-yl)-7-fluorobenzo[b] thiophene-3-carbonitrile]: the IC50 in test [3] (setting [4]) came out at 0.081 µM.

The values above are taken from patent US20250163064A1, “QUINAZOLINE COMPOUNDS AND USES THEREOF AS INHIBITORS OF MUTANT KRAS PROTEINS” (AMGEN INC., priority 2022, published 2025).
